Experimental data published in publication PMC5218480 (PLoS ONE, 2017).

Tested on: MV-4-11 cells
Assay: Gene expression microarray analysis (Affymetrix PrimeView) and GSEA
Format: cell-based, human
Design: RFU PODN (11730768_x_at) / Fold change /veh PODN (11730768_x_at) / RFU LINC00158 (11744669_a_at) / Fold change /veh LINC00158 (11744669_a_at) / RFU DUSP10 (11751237_a_at) / Fold change /veh DUSP10 (11751237_a_at) / RFU ID3 (11757404_x_at) / Fold change /veh ID3 (11757404_x_at) / RFU PLEKHG5 (11737974_s_at) / Fold change /veh PLEKHG5 (11737974_s_at) / RFU LRRC4B (11730491_at) / Fold change /veh LRRC4B (11730491_at) / RFU GIMAP4 (11747438_a_at) / Fold change /veh GIMAP4 (11747438_a_at) / RFU KRT8 (11758183_x_at) / Fold change /veh KRT8 (11758183_x_at) / RFU CNN1 (11734310_a_at) / Fold change /veh CNN1 (11734310_a_at) / RFU VPS37D (11726825_at) / Fold change /veh VPS37D (11726825_at) / RFU C10orf10 (11716522_x_at) / Fold change /veh C10orf10 (11716522_x_at) / RFU KIR2DL2 /// KIR2DL4 /// KIR2DL5A /// KIR2DL5B /// KIR2DS1 /// KIR2DS2 /// KIR2DS3 /// KIR2DS4 /// KIR3DL3 /// KIR3DL3 /// KIR3DS1 (11738374_at) / Fold change /veh KIR2DL2 /// KIR2DL4 /// KIR2DL5A /// KIR2DL5B /// KIR2DS1 /// KIR2DS2 /// KIR2DS3 /// KIR2DS4 /// KIR3DL3 /// KIR3DL3 /// KIR3DS1 (11738374_at) / RFU C1QL1 (11718748_at) / Fold change /veh C1QL1 (11718748_at) / RFU TMPRSS4 (11747572_a_at) / Fold change /veh TMPRSS4 (11747572_a_at) / RFU HAMP (11756126_x_at) / Fold change /veh HAMP (11756126_x_at) / RFU RNFT2 (11725882_a_at) / Fold change /veh RNFT2 (11725882_a_at) / RFU NR4A2 (11747474_a_at) / Fold change /veh NR4A2 (11747474_a_at) / RFU ABCC12 (11746883_a_at) / Fold change /veh ABCC12 (11746883_a_at) / RFU TMEM136 (11760407_x_at) / Fold change /veh TMEM136 (11760407_x_at) / RFU CLDN22 /// WWC2 (11732394_at) / Fold change /veh CLDN22 /// WWC2 (11732394_at) / RFU HLA-DPB1 (11760878_x_at) / Fold change /veh HLA-DPB1 (11760878_x_at) / RFU SPINT1 (11716480_a_at) / Fold change /veh SPINT1 (11716480_a_at) / RFU GAP43 (11754022_s_at) / Fold change /veh GAP43 (11754022_s_at) / RFU A4GNT (11735810_at) / Fold change /veh A4GNT (11735810_at) / RFU PRB3 (11715151_x_at) / Fold change /veh PRB3 (11715151_x_at) / RFU TUBB4B (11761932_at) / Fold change /veh TUBB4B (11761932_at) / RFU CAPN14 (11732068_a_at) / Fold change /veh CAPN14 (11732068_a_at) / RFU TMCC2 (11721928_a_at) / Fold change /veh TMCC2 (11721928_a_at) / RFU IRGQ (11745062_a_at) / Fold change /veh IRGQ (11745062_a_at) / RFU FAM174B (11720279_a_at) / Fold change /veh FAM174B (11720279_a_at) / RFU TMPRSS4 (11748680_a_at) / Fold change /veh TMPRSS4 (11748680_a_at) / RFU FAM212B (11763350_a_at) / Fold change /veh FAM212B (11763350_a_at) / RFU PLEKHG5 (11743358_a_at) / Fold change /veh PLEKHG5 (11743358_a_at) / RFU ZSCAN30 (11745921_a_at) / Fold change /veh ZSCAN30 (11745921_a_at) / RFU CMKLR1 (11741424_a_at) / Fold change /veh CMKLR1 (11741424_a_at) / RFU LOC101060620 /// MAPK8IP1 (11723275_at) / Fold change /veh LOC101060620 /// MAPK8IP1 (11723275_at) / RFU SPTSSB (11747773_x_at) / Fold change /veh SPTSSB (11747773_x_at) / RFU PRSS12 (11739890_at) / Fold change /veh PRSS12 (11739890_at) / RFU BIN1 (11741810_x_at) / Fold change /veh BIN1 (11741810_x_at) / RFU WNT11 (11732464_a_at) / Fold change /veh WNT11 (11732464_a_at) / RFU C10orf10 (11716521_a_at) / Fold change /veh C10orf10 (11716521_a_at) / RFU C5orf56 (11738089_at) / Fold change /veh C5orf56 (11738089_at) / RFU CYB561 (11721691_x_at) / Fold change /veh CYB561 (11721691_x_at) / RFU ANKRD19P (11752326_a_at) / Fold change /veh ANKRD19P (11752326_a_at) / RFU OR2T12 /// OR2T33 /// OR2T8 (11738714_s_at) / Fold change /veh OR2T12 /// OR2T33 /// OR2T8 (11738714_s_at) / RFU VCAN (11748164_a_at) / Fold change /veh VCAN (11748164_a_at) / RFU JSRP1 (11732532_at) / Fold change /veh JSRP1 (11732532_at) / RFU KRTAP10-11 (11738290_x_at) / Fold change /veh KRTAP10-11 (11738290_x_at) / RFU MYO3A (11730013_a_at) / Fold change /veh MYO3A (11730013_a_at) / RFU EBF3 (11725865_a_at) / Fold change /veh EBF3 (11725865_a_at) / RFU CAMK2N1 (11719241_x_at) / Fold change /veh CAMK2N1 (11719241_x_at) / RFU C5orf56 (11738088_a_at) / Fold change /veh C5orf56 (11738088_a_at) / RFU OLFML3 (11715873_a_at) / Fold change /veh OLFML3 (11715873_a_at) / RFU LOC100653217 /// NTM (11731650_a_at) / Fold change /veh LOC100653217 /// NTM (11731650_a_at) / RFU MAPK11 (11762145_a_at) / Fold change /veh MAPK11 (11762145_a_at) / RFU FIZ1 (11724087_x_at) / Fold change /veh FIZ1 (11724087_x_at) / RFU OASL (11726364_x_at) / Fold change /veh OASL (11726364_x_at) / RFU SOX15 (11748057_x_at) / Fold change /veh SOX15 (11748057_x_at) / RFU CD79A (11719716_a_at) / Fold change /veh CD79A (11719716_a_at) / RFU HIST1H1D (11736915_at) / Fold change /veh HIST1H1D (11736915_at) / RFU CASKIN2 (11723855_a_at) / Fold change /veh CASKIN2 (11723855_a_at) / RFU LOC730098 (11760151_x_at) / Fold change /veh LOC730098 (11760151_x_at) / RFU OR4N2 (11742367_at) / Fold change /veh OR4N2 (11742367_at) / RFU PRRT2 (11749266_a_at) / Fold change /veh PRRT2 (11749266_a_at) / RFU SNX32 (11753110_a_at) / Fold change /veh SNX32 (11753110_a_at) / RFU CDHR5 (11726645_a_at) / Fold change /veh CDHR5 (11726645_a_at) / RFU RCAN1 (11760418_a_at) / Fold change /veh RCAN1 (11760418_a_at) / RFU FAM167A (11723789_a_at) / Fold change /veh FAM167A (11723789_a_at) / RFU FAM26E (11764081_at) / Fold change /veh FAM26E (11764081_at) / RFU ISYNA1 (11749810_s_at) / Fold change /veh ISYNA1 (11749810_s_at) / RFU ACY1 (11761880_at) / Fold change /veh ACY1 (11761880_at) / RFU 11764098_at / Fold change /veh 11764098_at / RFU SAMD14 (11745864_x_at) / Fold change /veh SAMD14 (11745864_x_at) / RFU NPB (11741838_a_at) / Fold change /veh NPB (11741838_a_at) / RFU TMPRSS6 (11731388_a_at) / Fold change /veh TMPRSS6 (11731388_a_at) / RFU KRTAP10-2 (11738614_at) / Fold change /veh KRTAP10-2 (11738614_at) / RFU ARHGAP8 /// PRR5-ARHGAP8 (11727945_x_at) / Fold change /veh ARHGAP8 /// PRR5-ARHGAP8 (11727945_x_at) / RFU KRTAP5-7 /// NADSYN1 (11734609_at) / Fold change /veh KRTAP5-7 /// NADSYN1 (11734609_at) / RFU RASL12 (11751679_a_at) / Fold change /veh RASL12 (11751679_a_at) / RFU CDKN2B (11736163_a_at) / Fold change /veh CDKN2B (11736163_a_at) / RFU PRF1 (11729649_at) / Fold change /veh PRF1 (11729649_at) / RFU, ZNF638 /// ZNF638-IT1 / Fold change vs veh, ZNF638 /// ZNF638-IT1 / RFU, PANK3 / Fold change vs veh, PANK3 / RFU, SH3YL1 / Fold change vs veh, SH3YL1 / RFU, ZEB2 / Fold change vs veh, ZEB2 / RFU, NRIP1 / Fold change vs veh, NRIP1 / RFU, PTTG1IP / Fold change vs veh, PTTG1IP / RFU, CAPN2 / Fold change vs veh, CAPN2 / RFU, MED14 / Fold change vs veh, MED14 / RFU, SNORA58 / Fold change vs veh, SNORA58 / RFU, C1orf63 / Fold change vs veh, C1orf63 / RFU, LRRFIP1 / Fold change vs veh, LRRFIP1 / RFU, NDUFAF7 / Fold change vs veh, NDUFAF7 / RFU, SLC12A2 / Fold change vs veh, SLC12A2 / RFU, IBTK / Fold change vs veh, IBTK / RFU, ESF1 / Fold change vs veh, ESF1 / Fold change vs veh, TMEM50B / RFU, TAOK1 / Fold change vs veh, TAOK1 / RFU, ACBD3 / Fold change vs veh, ACBD3 / RFU, TMA16 / Fold change vs veh, TMA16 / RFU, RWDD3 / Fold change vs veh, RWDD3 / RFU, BCAT1 / Fold change vs veh, BCAT1 / RFU, EDEM3 / Fold change vs veh, EDEM3 / RFU, TMEM33 / Fold change vs veh, TMEM33 / RFU, WDR75 / Fold change vs veh, WDR75 / RFU, AHCTF1 / Fold change vs veh, AHCTF1 / RFU, TFRC / Fold change vs veh, TFRC / RFU, ZDHHC17 / Fold change vs veh, ZDHHC17 / RFU, NOM1 / Fold change vs veh, NOM1 / RFU, ARL8B / Fold change vs veh, ARL8B / RFU, ZBTB11 / Fold change vs veh, ZBTB11 / RFU, TAMM41 / Fold change vs veh, TAMM41 / RFU, KIAA1704 /// LOC100996395 / Fold change vs veh, KIAA1704 /// LOC100996395 / RFU, ING1 / Fold change vs veh, ING1 / RFU, TRMT61B / Fold change vs veh, TRMT61B / RFU, FUBP3 / Fold change vs veh, FUBP3 / RFU, TP53 / Fold change vs veh, TP53 / RFU, TNKS2 / Fold change vs veh, TNKS2 / RFU, ZFP14 / Fold change vs veh, ZFP14 / RFU, ACTR2 / Fold change vs veh, ACTR2 / RFU, PPP3R1 / Fold change vs veh, PPP3R1 / RFU, PIK3R1 / Fold change vs veh, PIK3R1 / RFU, HNRNPA1 / Fold change vs veh, HNRNPA1 / RFU, RNF170 / Fold change vs veh, RNF170 / RFU, ZNF28 / Fold change vs veh, ZNF28 / RFU, RNGTT / Fold change vs veh, RNGTT / RFU, OGT / Fold change vs veh, OGT / RFU, BRD1 / Fold change vs veh, BRD1 / RFU, MARS / Fold change vs veh, MARS / RFU, ZNF655 / Fold change vs veh, ZNF655 / RFU, FAHD1 / Fold change vs veh, FAHD1 / RFU, BDP1 / Fold change vs veh, BDP1 / RFU, LRRCC1 / Fold change vs veh, LRRCC1 / RFU, ARID1A / Fold change vs veh, ARID1A / RFU, ZNF146 / Fold change vs veh, ZNF146 / RFU, ZNF330 / Fold change vs veh, ZNF330 / RFU, GPN3 / Fold change vs veh, GPN3 / RFU, C9orf123 / Fold change vs veh, C9orf123 / RFU, N4BP2L2 / Fold change vs veh, N4BP2L2 / RFU, ARFIP1 / Fold change vs veh, ARFIP1 / RFU, FAM179B / Fold change vs veh, FAM179B / RFU, BCL10 / Fold change vs veh, BCL10 / RFU, UHRF1BP1L / Fold change vs veh, UHRF1BP1L / RFU, BET1 / Fold change vs veh, BET1 / RFU, CNOT2 / Fold change vs veh, CNOT2 / RFU, ZNF268 / Fold change vs veh, ZNF268 / Fold change vs veh, ZNF507 / RFU, DGCR2 / Fold change vs veh, DGCR2 / RFU, WDSUB1 / Fold change vs veh, WDSUB1 / Fold change vs veh, HSP90B1 /// MIR3652 / RFU, ADSS / Fold change vs veh, ADSS / RFU, GK / Fold change vs veh, GK / RFU, ZNF148 / Fold change vs veh, ZNF148 / RFU, TAF9 / Fold change vs veh, TAF9 / RFU, SLC1A5 / Fold change vs veh, SLC1A5 / RFU, SLMO2 / Fold change vs veh, SLMO2 / RFU, ABCC4 / Fold change vs veh, ABCC4 / RFU, LOC101060439 /// RAP1B / Fold change vs veh, LOC101060439 /// RAP1B / RFU, RFX7 / Fold change vs veh, RFX7 / RFU, GTPBP10 / Fold change vs veh, GTPBP10 / RFU, CNEP1R1 / Fold change vs veh, CNEP1R1 / RFU, BIVM-ERCC5 /// ERCC5 / Fold change vs veh, BIVM-ERCC5 /// ERCC5 / RFU, ILF3 / Fold change vs veh, ILF3 / RFU 11762660_at / Fold change /veh 11762660_at / RFU VCAN (11757783_s_at) / Fold change /veh VCAN (11757783_s_at) / RFU DDX43 (11728927_at) / Fold change /veh DDX43 (11728927_at) / RFU KRT8 (11758188_x_at) / Fold change /veh KRT8 (11758188_x_at) / RFU NKD1 (11759106_at) / Fold change /veh NKD1 (11759106_at) / RFU SRD5A1 (11742802_a_at) / Fold change /veh SRD5A1 (11742802_a_at) / RFU TPSAB1 /// TPSB2 (11721975_s_at) / Fold change /veh TPSAB1 /// TPSB2 (11721975_s_at) / RFU GSTM3 (11746129_a_at) / Fold change /veh GSTM3 (11746129_a_at) / RFU IL23R (11737362_x_at) / Fold change /veh IL23R (11737362_x_at) / RFU TMEM51 (11727254_a_at) / Fold change /veh TMEM51 (11727254_a_at) / RFU PIWIL2 (11732686_x_at) / Fold change /veh PIWIL2 (11732686_x_at) / RFU ORM1 (11744905_x_at) / Fold change /veh ORM1 (11744905_x_at) / RFU CCDC152 (11743942_at) / Fold change /veh CCDC152 (11743942_at) / RFU ECM1 (11717891_a_at) / Fold change /veh ECM1 (11717891_a_at) / RFU IL23R (11748794_a_at) / Fold change /veh IL23R (11748794_a_at) / RFU TNFAIP8L3 (11732012_x_at) / Fold change /veh TNFAIP8L3 (11732012_x_at) / RFU MBOAT4 (11741988_at) / Fold change /veh MBOAT4 (11741988_at) / RFU 11764193_at / Fold change /veh 11764193_at / RFU TMEM53 (11763286_at) / Fold change /veh TMEM53 (11763286_at) / RFU MAGEB2 (11727129_at) / Fold change /veh MAGEB2 (11727129_at) / RFU TMEM200A (11744735_a_at) / Fold change /veh TMEM200A (11744735_a_at) / RFU CCDC152 (11751479_a_at) / Fold change /veh CCDC152 (11751479_a_at) / RFU FAM211A (11726209_a_at) / Fold change /veh FAM211A (11726209_a_at) / RFU RGS16 (11746705_a_at) / Fold change /veh RGS16 (11746705_a_at) / RFU VCAN (11755009_s_at) / Fold change /veh VCAN (11755009_s_at) / RFU RHOB (11743442_s_at) / Fold change /veh RHOB (11743442_s_at) / RFU RGS16 (11720943_a_at) / Fold change /veh RGS16 (11720943_a_at) / RFU RGS16 (11720944_at) / Fold change /veh RGS16 (11720944_at) / RFU, VPS4B / Fold change vs veh, VPS4B / RFU, CREB1 / Fold change vs veh, CREB1 / RFU, DNAJC13 / Fold change vs veh, DNAJC13 / RFU, GNAQ / Fold change vs veh, GNAQ / RFU, CDK5R1 / Fold change vs veh, CDK5R1 / RFU, ZRANB3 / Fold change vs veh, ZRANB3 / RFU, CUL4A / Fold change vs veh, CUL4A / RFU, CCNY / Fold change vs veh, CCNY / RFU, UFL1 / Fold change vs veh, UFL1 / RFU, COG3 / Fold change vs veh, COG3 / RFU, DIAPH2 / Fold change vs veh, DIAPH2 / RFU, SKA2 / Fold change vs veh, SKA2 / RFU, AFF3 / Fold change vs veh, AFF3 / RFU, LMF1 / Fold change vs veh, LMF1 / RFU, IPO11 / Fold change vs veh, IPO11 / RFU, DFFB / Fold change vs veh, DFFB / RFU, FOXP1 / Fold change vs veh, FOXP1 / RFU, CARD8 / Fold change vs veh, CARD8 / RFU, STRN3 / Fold change vs veh, STRN3 / RFU, ADK / Fold change vs veh, ADK / RFU, RASSF2 / Fold change vs veh, RASSF2 / RFU, WIPF1 / Fold change vs veh, WIPF1 / RFU, LARP1B / Fold change vs veh, LARP1B / RFU, RASA1 / Fold change vs veh, RASA1 / RFU, RB1 / Fold change vs veh, RB1 / RFU, PPFIA1 / Fold change vs veh, PPFIA1 / RFU, MAT2A / Fold change vs veh, MAT2A / RFU, CCT5 / Fold change vs veh, CCT5 / RFU, WDR92 / Fold change vs veh, WDR92 / RFU, CUX1 / Fold change vs veh, CUX1 / RFU, TTC7A / Fold change vs veh, TTC7A / RFU, TMEM135 / Fold change vs veh, TMEM135 / RFU, DEPTOR / Fold change vs veh, DEPTOR / RFU, CPM / Fold change vs veh, CPM / RFU, DNAJB6 / Fold change vs veh, DNAJB6 / RFU, CACNA2D3 / Fold change vs veh, CACNA2D3 / RFU, DTX4 / Fold change vs veh, DTX4 / RFU, TFCP2 / Fold change vs veh, TFCP2 / RFU, GMCL1 /// GMCL1P1 / Fold change vs veh, GMCL1 /// GMCL1P1 / RFU, AEBP2 / Fold change vs veh, AEBP2 / RFU, SNHG1 /// SNORD22 /// SNORD25 /// SNORD26 /// SNORD27 /// SNORD28 /// SNORD29 /// SNORD31 / Fold change vs veh, SNHG1 /// SNORD22 /// SNORD25 /// SNORD26 /// SNORD27 /// SNORD28 /// SNORD29 /// SNORD31 / Fold change (Aza/veh), C12orf56 (ProbeSet 11735607_a_at) / Fold change (ACY-1035/veh), C12orf56 (ProbeSet 11735607_a_at) / Fold change (Aza/veh), FGFR1OP (ProbeSet 11751329_s_at) / Fold change (ACY-1035/veh), FGFR1OP (ProbeSet 11751329_s_at) / Fold change (Aza/veh), VPS36 (ProbeSet 11739960_a_at) / Fold change (ACY-1035/veh), VPS36 (ProbeSet 11739960_a_at) / RFU SYPL1 (11715823_x_at) / Fold change /veh SYPL1 (11715823_x_at) / RFU IGFBP7 (11715501_s_at) / Fold change /veh IGFBP7 (11715501_s_at) / RFU REEP3 (11722064_at) / Fold change /veh REEP3 (11722064_at) / RFU IGLL1 (11728026_x_at) / Fold change /veh IGLL1 (11728026_x_at): dose or concentration left out as unconfirmed
Settings: ProbeSet 11725100_s_at; LIST B

With `Nc1ccc(-c2cccs2)cc1NC(=O)c1ccc2c(c1)cc(C1CC1)n2CCN1CCOCC1` [ACY-1035] the “Fold change vs veh, ESF1” value was 0.88.
